Holding throughout (assay type): cell-based
The subject of assay [1] is NCI-H1299 cells. Kind of assay: CCK-8 assay for cell proliferation and cytotoxicity, NCI-H1299. The following applies: Homo sapiens, CCK-8, 48 h. The protocol: (§1) Three types of lung cells were seeded into 96-well plate at a density of 5 × 10^3 cells per well at logarithmic growth phase and cultured in 37 °C. […] After that, cell viability was determined according to the instruction of the CCK-8 assay. Next, 10 μL of CCK-8 solution was added to each well of the plate and incubate the plate for 1–4 h in the incubator. The absorbance was measured at 450 nm using a microplate reader (Bio-Tek). The percentage of viable cells was measured using the following formula where three independent experiments were performed: [(A450 sample − A450blank)/(A450 control − A450blank)] × 100%.
(Tetrazolium assays rely on reduction of a dye to a coloured formazan, in cell work by metabolically active cells.)

Assay [2] concerns A549 cells. The assay can be described thus: CCK-8 assay for cell proliferation and cytotoxicity, A549. The following applies: Homo sapiens, CCK-8, 48 h. As to the method: A549 cells were cultured in a humidified incubator at 37 °C with 5% CO2 in Ham’s F-12 K (PM150910, Procell) supplemented with 10% FBS and 1% Penicillin Streptomycin.
as §1

For assay [3], the system named is NCI-H1437 cells. Kind of assay: CCK-8 assay for cell proliferation and cytotoxicity, NCI-H1437. The settings on record: Homo sapiens, CCK-8, 48 h, read-out: IC50 1437. As to the method:
as §1

The results in this text go back to PMC11035632, “Discovery of gefitinib-1,2,3-triazole derivatives against lung cancer via inducing apoptosis and inhibiting the colony formation” (Scientific Reports, 2024).

As a reminder, the IC50 is the concentration that gives 50% inhibition.

As to `COc1cc2ncnc(Nc3cccc(-c4cn(Cc5ccccc5[N+](=O)[O-])nn4)c3)c2cc1OCCCN1CCOCC1` [Compound 7e], the half-maximal inhibitory concentration (IC50) in assay [1] stood at 5.81 ± 0.12 µM; in assay [2] it was 4.38 ± 0.07 µM; in assay [3], 2.22 ± 0.18 µM.
With `COc1cc2ncnc(Nc3cccc(-c4cn(-c5ccc([N+](=O)[O-])cc5OC)nn4)c3)c2cc1OCCCN1CCOCC1` [Compound 7t], the values for the IC50 in assay [1], in assay [2] and in assay [3] were 13 ± 0.23 µM, 13.5 ± 0.33 µM and 14.93 ± 0.14 µM, respectively.
On the same counts, the results for `COc1cc2ncnc(Nc3cccc(-c4cn(Cc5ccc(I)cc5)nn4)c3)c2cc1OCCCN1CCOCC1` [Compound 7i] are 5.6 ± 0.09 µM, 5.76 ± 0.62 µM and 4.69 ± 0.23 µM.
Turning to `COc1cc2ncnc(Nc3cccc(-c4cn(Cc5ccc(C(F)(F)F)cc5)nn4)c3)c2cc1OCCCN1CCOCC1` [Compound 7h], the IC50 in assay [1] was 4.89 ± 0.16 µM; in assay [2], 7.13 ± 1.21 µM; in assay [3] it was 5.21 ± 0.3 µM.
Consider `COc1cc(Cn2cc(-c3cccc(Nc4ncnc5cc(OC)c(OCCCN6CCOCC6)cc45)c3)nn2)cc(OC)c1` [Compound 7o], for which the results for the IC50 in assay [1], in assay [2] and in assay [3] were 6.78 ± 0.41 µM, 12 ± 0.15 µM and 5.21 ± 0.13 µM, respectively.
Turning to `COc1cc2ncnc(Nc3cccc(-c4cn(Cc5ccc([N+](=O)[O-])cc5)nn4)c3)c2cc1OCCCN1CCOCC1` [Compound 7f], the results for the IC50 in assay [1], in assay [2] and in assay [3] were 5.65 ± 0.16 µM, 16.4 ± 1.07 µM and 3.95 ± 0.45 µM, respectively.
Regarding `COc1cc2ncnc(Nc3cccc(-c4cn(-c5cccc([N+](=O)[O-])c5)nn4)c3)c2cc1OCCCN1CCOCC1` [Compound 7s], the IC50 in assay [1] stood at 9.68 ± 0.21 µM; in assay [2], 11 ± 0.25 µM; in assay [3], 8.21 ± 0.13 µM.
On to `COc1cc2ncnc(Nc3cccc(-c4cn(Cc5ccccc5F)nn4)c3)c2cc1OCCCN1CCOCC1` [Compound 7g, N-(3-(1-(2-fluorobenzyl)-1H-1,2,3-triazol-4-yl)phenyl)-7-methoxy-6-(3-morpholinopropoxy)quinazolin-4-amine], for which the figures for the IC50 in assay [1], in assay [2] and in assay [3] were 5.97 ± 0.36 µM, 6.23 ± 0.12 µM and 1.66 ± 0.18 µM, respectively.
With `COc1cc2ncnc(Nc3cccc(-c4cn(Cc5ccc(Cl)cc5)nn4)c3)c2cc1OCCCN1CCOCC1` [Compound 7k], the results for the IC50 in assay [1], in assay [2] and in assay [3] were 6.9 ± 0.23 µM, 4.91 ± 0.52 µM and 2.9 ± 0.23 µM, respectively.
As to `COc1cccc(-n2cc(-c3cccc(Nc4ncnc5cc(OC)c(OCCCN6CCOCC6)cc45)c3)nn2)c1` [Compound 7r], the IC50 in assay [1] came out at 9.35 ± 0.31 µM; in assay [2], 12.9 ± 0.25 µM; in assay [3], 6.21 ± 0.23 µM.
The corresponding values for `COc1cc2ncnc(Nc3cccc(-c4cn(Cc5cccc(I)c5)nn4)c3)c2cc1OCCCN1CCOCC1` [Compound 7p] are 5.04 ± 0.33 µM, 8.5 ± 0.34 µM and 4.93 ± 0.14 µM.
On the same counts, the results for `COc1cc2ncnc(Nc3cccc(-c4cn(Cc5ccc(Br)cc5F)nn4)c3)c2cc1OCCCN1CCOCC1` [Compound 7b] are 4.6 ± 0.16 µM, 5.28 ± 0.2 µM and 3.65 ± 0.04 µM.
Turning to `COc1cc2ncnc(Nc3cccc(-c4cn(Cc5cc(C)cc(C)c5)nn4)c3)c2cc1OCCCN1CCOCC1` [Compound 7m], the 50% inhibitory concentration (IC50) in assay [1] worked out at 4.48 ± 0.41 µM; in assay [2], 6.54 ± 0.21 µM; in assay [3] it was 3.72 ± 0.17 µM.
On to `COc1cc2ncnc(Nc3cccc(-c4cn(-c5ccccc5F)nn4)c3)c2cc1OCCCN1CCOCC1` [Compound 7q], for which the values for the concentration for half-maximal inhibition (IC50) in assay [1], in assay [2] and in assay [3] were 7.68 ± 0.11 µM, 9.03 ± 0.15 µM and 7.21 ± 0.1 µM, respectively.
For `COc1cc2ncnc(Nc3cccc(-c4cn(Cc5ccccc5C)nn4)c3)c2cc1OCCCN1CCOCC1` [Compound 7l], the figures for the concentration for half-maximal inhibition (IC50) in assay [1], in assay [2] and in assay [3] were 4.92 ± 0.49 µM, 6.59 ± 0.2 µM and 0.84 ± 0.1 µM, respectively.
As for `COc1cc2ncnc(Nc3cccc(-c4cn(Cc5c(F)cccc5Cl)nn4)c3)c2cc1OCCCN1CCOCC1` [Compound 7d], the results for the IC50 in assay [1], in assay [2] and in assay [3] were 6.04 ± 0.41 µM, 8.5 ± 0.41 µM and 4.83 ± 0.16 µM, respectively.
On the same counts, the results for `COc1cc2ncnc(Nc3cccc(-c4cn(Cc5cc(F)ccc5C#N)nn4)c3)c2cc1OCCCN1CCOCC1` [Compound 7n] are 6.02 ± 0.24 µM, 3.78 ± 0.03 µM and 4.67 ± 0.28 µM.
On the same counts, the results for `COc1cc2ncnc(Nc3cccc(-c4cn(Cc5ccc(Cl)c(F)c5)nn4)c3)c2cc1OCCCN1CCOCC1` [Compound 7c] are 6.24 ± 0.32 µM, 5.68 ± 0.14 µM and 3.08 ± 0.47 µM.
